The inhibition is the relative decrease from the control value, in per cent. As a reminder, the IC50 is the concentration that inhibits the measured activity by half.

Consider seven compounds from publication PMC6804113, “Cyclic Peptides Acting as Allosteric Inhibitors of Human Thymidylate Synthase and Cancer Cell Growth” (Molecules, 2019).

Data set [1] deals with T1, recombinant human thymidylate synthase (hTS) (Homo sapiens, UniProt P04818).
T1 construct: made in house
Kind of data set: hTS inhibition assay (spectrophotometric, absorbance at 340 nm). Particulars: for % inhibition of hTS / inhibition at 500 µM: at 500 µM and r.t. It is filed as biochemical. Here is the method: hTS was purified as previously reported. The enzyme solution was thawed the day of the experiment and the enzyme concentration was determined by UV−Vis spectroscopy (Varian Cary 100, Agilent, Santa Clara, CA, USA) using ε280 = 89000 M^−1 cm^−1 and Mr = 74 229. The thawed protein solution was kept constantly at 4 °C. In this condition, the enzyme was able to reproduce normal kinetic activity values (KM dUMP = 10−12 μM, KM mTHF = 4−6 μM, kcat = 0.8−0.9 s^−1). The peptide solution was mixed or vortexed in order to help solubilization; the precise concentration was determined through UV−Vis spectroscopy. A stock solution of mTHF was prepared in carbonate buffer. The stock was prepared in the range of 5 to 6 mM. A stock solution of dUMP was prepared in bidistilled water in the range of 10−12 mM. Peptide inhibitors were tested without incubation with hTS in […], at 25 °C. A 1 mL amount of assay buffer consisted of 50 mM TES, pH 7.4, containing 25 mM MgCl2, 6.5 mM HCHO, 1 mM EDTA, 75 mM β-mercaptoethanol (β-ME), 0.120 mM dUMP, and 0.060 mM mTHF. Following the addition of the enzyme (300 nM) and inhibitor mixture, the absorbance was monitored at 340 nm in a UV−Vis spectrophotometer for 3 min. In the control sample, an equal aliquot of enzyme alone was added. hTS activity inhibition percentages (I%) values were measured at 0.100−3000 µM concentration of inhibitor. […] The kinetic inhibition pattern was studied for compound 7 [12]. The inhibition values are expressed as mean ± SEM; n = 3.

Another data set relates to IGROV-1 cells. Kind of data set: Cytotoxicity, crystal violet cell growth assay, peptides transfected with SAINT-PhD. It is filed as cell-based, human. Particulars: at 10 and 25 µM, ranking among the 10 cPs, SAINT-PhD delivery. The protocol: (§1) The IGROV-1, A2780, and A2780/CP human ovarian cancer cell lines were grown as monolayer in RPMI 1640 medium containing 10% heat-inactivated fetal bovine serum and 50 µg/mL gentamycin sulfate (Euroclone, Devon, UK). Cultures were equilibrated with humidified 5% CO2 in air at 37 °C. The cDDP-resistant variant A2780/CP cell line, derived from the parent A2780 cell line, is about 10-fold resistant to cDDP and was developed by monthly exposure to cDDP, followed by chronic exposure to stepwise increases in cDDP concentration. All studies were performed in Mycoplasma negative cells, as routinely determined with the MycoAlert Mycoplasma detection kit (Lonza, Walkersville, MD, USA).
(§2) Treatment with each peptide was performed according to the standard transfection protocol of the SAINT-PhD delivery system (Synvolux Therapeutics, Leiden, Netherlands). Complexes of peptide (µg) with SAINT-PhD (µL) were prepared at appropriate ratios corresponding to the approximate µM concentrations indicated. For each protein sample, complexes were prepared as follows: for the treatment of a 24-well plate, the appropriate amount of each peptide was diluted in HBS, then SAINT-PhD was pipetted into the solution without vortexing; then, the mixture was incubated for 5 min at room temperature, and filled up to 500 µL with serum-free medium. The culture medium was aspirated from the cells, the SAINT-PhD/peptide complex was added to the wells and incubated 4 h (37 °C, 5% CO2). Afterward, complete RPMI was added to reach the appropriate volume for maintaining the cell culture for the duration of the experiments.
(§3) Cell growth was determined using a modified crystal violet assay. On selected days, the tissue culture medium was removed, and the cell monolayer fixed with methanol and stained with 0.2% crystal violet solution in 20% methanol for at least 30 min. After being washed several times with distilled water to remove excess dye, the cells were left to dry. The incorporated dye was solubilized in acidified isopropanol (1N HCl: 2-propanol, 1:10). After appropriate dilution, absorbance was determined spectrophotometrically at 540 nm. The extracted dye was proportional to cell biomass. The percentage of cytotoxicity was calculated by comparing the absorbance of cultures exposed to the drug to unexposed (control) cultures.

The target in data set [2] is T1, recombinant human thymidylate synthase (hTS). Kind of data set: hTS inhibition assay (spectrophotometric, absorbance at 340 nm). It is filed as biochemical. Particulars: for IC50: room temperature (20–22 °C) under stirring, standard error ±20% of the value; for % inhibition of hTS: at 500 µM and 37 °C under stirring.
The next data set concerns A2780/CP cells. Kind of data set: Cytotoxicity, crystal violet cell growth assay, peptides transfected with SAINT-PhD. It counts as cell-based, human. Particulars: SAINT-PhD delivery. The protocol: as §1, §2, §3
The subject of the next data set is A2780 cells. The data set is described as above. It counts as cell-based, human. Particulars: SAINT-PhD delivery. Here is the method:
as §1, §2, §3

The target of data set [3] is T1, recombinant human thymidylate synthase (hTS). Particulars: at 100 µM; ref [20]; cited from earlier work.

“And” between values parts separate entries of the source, which are not always exact repeats. Equal entries are not always repeated. “Also recorded” adds a separate entry of the source. Where two headings read alike, the source gives them in different places. Starred links: 1 amine or outer side, 2 acyl side, 3 side chain; linkers in the order of their positions; H or OH if unused. Positions of bridges follow the written chain, without caps; N, C: chain ends. Residues, ends and D or L forms follow the SMILES beside them. No end group written: not given here. Cysteamide = C(CS[*:3])N[*:1]

T1 sequence (P04818 whole entry): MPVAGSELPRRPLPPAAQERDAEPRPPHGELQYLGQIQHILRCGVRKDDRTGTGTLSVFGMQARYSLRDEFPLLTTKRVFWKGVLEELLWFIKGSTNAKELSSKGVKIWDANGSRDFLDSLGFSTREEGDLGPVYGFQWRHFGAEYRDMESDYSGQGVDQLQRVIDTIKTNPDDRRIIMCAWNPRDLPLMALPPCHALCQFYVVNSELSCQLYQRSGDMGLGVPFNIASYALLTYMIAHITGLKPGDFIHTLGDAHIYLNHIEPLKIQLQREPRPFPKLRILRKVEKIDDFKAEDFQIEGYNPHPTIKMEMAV

Regarding `CC(C)C[C@@H]1NC(=O)[C@H](CCC(N)=O)NC(=O)[C@H](C)NC(=O)[C@@H](NC(=O)[C@@H](N)CC(C)C)CSSC[C@@H](C(=O)O)NC(=O)[C@H](CCC(N)=O)NC(=O)[C@H](Cc2ccc(O)cc2)NC1=O` [Peptide 2, Leu-c[Cys-Ala-Gln-Leu-Tyr-Gln-Cys]] (H-LCAQLYQC-OH; disulfide 2-8), the inhibition at 400 µM in data set [1] (at 400 µM and r.t. under stirring) came out at 36%. In the data set on IGROV-1 cells, the “cytotoxicity (in words)” value is given as “least active”. Moreover, the 50% inhibitory concentration (IC50) in data set [2] is 900 µM.
On to `CC(C)C[C@@H]1NC(=O)[C@H](CCC(N)=O)NC(=O)[C@@H]2CCCN2C(=O)[C@@H](NC(=O)[C@@H](N)CC(C)C)CSSC[C@@H](C(=O)N[C@@H](CCC(N)=O)C(=O)N[C@@H](CCCNC(=N)N)C(=O)O)NC1=O` [Peptide 6, Leu-c[Cys-Pro-Gln-Leu-Cys]-Gln-Arg] (H-LCPQLCQR-OH; disulfide 2-6), for which the “% inhibition of hTS” value in data set [1] and in data set [2] was “inactive” each time. The “cytotoxicity (in words)” value in the data set on A2780/CP cells was “almost non-cytotoxic”; with A2780 cells, “almost non-cytotoxic”; with IGROV-1 cells it was “least active; also recorded: almost non-cytotoxic”.
Consider `CC(C)C[C@@H]1NC(=O)[C@H](CCC(N)=O)NC(=O)[C@@H]2CCCN2C(=O)[C@@H](NC(=O)[C@@H](N)CC(C)C)CSSC[C@@H](C(=O)N[C@@H](CCCNC(=N)N)C(=O)O)NC(=O)[C@H](Cc2ccc(O)cc2)NC1=O` [Peptide 7, Leu-c[Cys-Pro-Gln-Leu-Tyr-Cys]-Arg] (H-LCPQLYCR-OH; disulfide 2-7), for which, in data set [1] (at 100 µM and r.t. under stirring), the inhibition at 100 µM was 59%. For the same compound, in data set [1], the inhibition at 500 µM was determined as 76%. Besides, the Ki in data set [1] (kinetic inhibition pattern, Figure S1, read-out: apparent KI) fell in the range of 120 to 150 µM. The “cytotoxicity (in words)” value in the data set with IGROV-1 cells was “intermediate cytotoxicities”.
For the compound `CC(C)C[C@@H]1NC(=O)[C@H](CCC(N)=O)NC(=O)[C@@H]2CCCN2C(=O)[C@@H](NC(=O)[C@@H](N)CC(C)C)CSSC[C@@H](C(=O)O)NC(=O)[C@H](CCC(N)=O)NC(=O)[C@H](Cc2ccc(O)cc2)NC1=O` [Peptide 8, Leu-c[Cys-Pro-Gln-Leu-Tyr-Gln-Cys]] (H-LCPQLYQC-OH; disulfide 2-8), in data set [1], the inhibition at 500 µM worked out at 38%. The “cytotoxicity (in words)” value in the data set on IGROV-1 cells was “least active”. In addition, the IC50 in data set [2] was determined as 856 µM.
For the compound `CC(C)C[C@@H]1NC(=O)[C@H](CCC(N)=O)NC(=O)[C@@H]2CCCN2C(=O)[C@@H](NC(=O)[C@@H](N)CC(C)C)CSSCCNC(=O)[C@H](CCCNC(=N)N)NC(=O)[C@H](CCC(N)=O)NC(=O)[C@H](Cc2ccc(O)cc2)NC1=O` [Peptide 9, Leu-c[Cys-Pro-Gln-Leu-Tyr-Gln-Arg-CAM]] (H-LCPQLYQR-Cysteamide; disulfide 2-C), the “% inhibition of hTS” value in data set [1] was “inactive; also recorded: N.I. at 500 µM and r.t. N.I. at 500 µM and 37 °C under stirring”; in data set [2], “inactive; also recorded: N.I. at 500 µM and r.t. N.I. at 500 µM and 37 °C under stirring”. Also, the “cytotoxicity (in words)” value with IGROV-1 cells is reported as “intermediate cytotoxicities”.
In the case of `CC(C)C[C@@H]1NC(=O)[C@H](CCC(N)=O)NC(=O)[C@@H]2CCCN2C(=O)[C@H](CO)NC(=O)[C@@H](N)CSSC[C@@H](C(=O)O)NC(=O)[C@H](CCC(N)=O)NC(=O)[C@H](Cc2ccc(O)cc2)NC1=O` [Peptide 10] (H-CSPQLYQC-OH; disulfide 1-8), the inhibition at 500 µM in data set [1] came out at 50%. Further, the “cytotoxicity (in words)” value with IGROV-1 cells was “intermediate cytotoxicities”. In addition, the IC50 in data set [2] was 484 µM and 474 µM.
As to “LSPQLYQR [[Pro^3]LR, proline mutant of LR]”, the “% inhibition of hTS” value in data set [3] was 25% at 100 µM ^c.
